Reference: ChEMBL document CHEMBL1781990, “Synthesis and pharmacological activity of O-aminoalkyl derivatives of 7-hydroxycoumarin” (2011)
Converted amounts (≈) assume the structure as drawn. The source made the active and inactive calls. The calls are words filed in the database; no cut-off is given here.

What was measured:
[1] = test system: Bacillus cereus; experiment: Antibacterial against Bacillus cereus ATCC 11778 after 24 hrs by NCCLS M7-A6 method; assay type: functional
[2] = test system: Escherichia coli; experiment: Antibacterial against Escherichia coli ATCC 10536 after 24 hrs by NCCLS M7-A6 method; assay type: functional; conditions: ATCC 10536, 24 h
[3] = test system: Micrococcus luteus; experiment: Antibacterial against Micrococcus luteus ATCC 9341 after 24 hrs by NCCLS M7-A6 method; assay type: functional
[4] = test system: Staphylococcus aureus; experiment: Antibacterial against Staphylococcus aureus ATCC 6538 after 24 hrs by NCCLS M7-A6 method; assay type: functional; conditions: ATCC 6538, 24 h
[5] = test system: Staphylococcus aureus; experiment: Antibacterial against Staphylococcus aureus ATCC 6538P after 24 hrs by NCCLS M7-A6 method; assay type: functional
[6] = test system: Bacillus subtilis; experiment: Antibacterial against Bacillus subtilis ATCC 6633 after 24 hrs by NCCLS M7-A6 method; assay type: functional
[7] = test system: Staphylococcus aureus; experiment: Antibacterial against Staphylococcus aureus ATCC 6538 at 20 mg/mL after 24 hrs by NCCLS M7-A6 method; assay type: functional, organism-based
[8] = test system: HL-60; experiment: Cytotoxicity against human HL60 cells assessed as cell growth inhibition at 10^-5 M; assay type: functional, cell-based
[9] = test system: 786-0; experiment: Cytotoxicity against human 786-0 cells assessed as cell growth inhibition at 10^-5 M; assay type: functional, cell-based
[10] = test system: HOP-92; experiment: Cytotoxicity against human HOP92 cells assessed as cell growth inhibition at 10^-5 M; assay type: functional, cell-based
[11] = test system: CCRF-CEM; experiment: Cytotoxicity against human CCRF-CEM cells assessed as cell growth inhibition at 10^-5 M; assay type: functional, cell-based
[12] = test system: HCC 2998; experiment: Cytotoxicity against human HCC2998 cells assessed as cell growth inhibition at 10^-5 M; assay type: functional, cell-based
[13] = test system: Micrococcus luteus; experiment: Antibacterial against Micrococcus luteus ATCC 10240 at 20 mg/mL after 24 hrs by NCCLS M7-A6 method; assay type: functional, organism-based
[14] = test system: Bacillus cereus; experiment: Antibacterial against Bacillus cereus ATCC 11778 at 20 mg/mL after 24 hrs by NCCLS M7-A6 method; assay type: functional, organism-based
[15] = test system: Staphylococcus aureus; experiment: Antibacterial against Staphylococcus aureus ATCC 6538P at 20 mg/mL after 24 hrs by NCCLS M7-A6 method; assay type: functional, organism-based
[16] = test system: Micrococcus luteus; experiment: Antibacterial against Micrococcus luteus ATCC 9341 at 20 mg/mL after 24 hrs by NCCLS M7-A6 method; assay type: functional, organism-based
[17] = test system: Escherichia coli; experiment: Antibacterial against Escherichia coli ATCC 8739 at 20 mg/mL after 24 hrs by NCCLS M7-A6 method; assay type: functional, organism-based
[18] = test system: Bacillus subtilis; experiment: Antibacterial against Bacillus subtilis ATCC 6633 at 20 mg/mL after 24 hrs by NCCLS M7-A6 method; assay type: functional, organism-based
[19] = test system: Escherichia coli; experiment: Antibacterial against Escherichia coli ATCC 10536 at 20 mg/mL after 24 hrs by NCCLS M7-A6 method; assay type: functional, organism-based
[20] = Bacillus cereus, ATCC 11778, 24 h, read-out: MIC
[21] = Micrococcus luteus, ATCC 9341, 24 h, read-out: MIC
[22] = Bacillus subtilis, ATCC 6633, 24 h, read-out: MIC

MIC [1, 20] | MIC [2] | MIC [3, 21] | MIC [4] | MIC [5] | MIC [6, 22] | SMILES | Activity [7] | other results
24.3 mM (≈ 8880 µg/mL) | 24.3 mM (≈ 8880 µg/mL) | 1.5 mM (≈ 548 µg/mL) | 24.3 mM (≈ 8880 µg/mL) | 24.3 mM (≈ 8880 µg/mL) | 24.3 mM (≈ 8880 µg/mL) | CC(=O)c1cc2c(C)cc(=O)oc2cc1OCCN(C)Cc1ccccc1 | – | –
21.2 mM | 21.2 mM | 1.4 mM | 21.2 mM | 21.2 mM | 21.9 mM | C[N+](C)(CCOc1ccc2ccc(=O)oc2c1)Cc1ccccc1 | – | –
– | 7.1 mM | – | 7.1 mM | 7.1 mM | – | CCN(CC)CCOc1cc2oc(=O)cc(C)c2cc1C(C)=O.Cl | – | MIC [1]: 0.4 mM; MIC [3]: 1.8 mM; MIC [6]: 0.4 mM
8.4 mM (≈ 2200 µg/mL) | 16.8 mM (≈ 4390 µg/mL) | 8.4 mM (≈ 2200 µg/mL) | – | 67.2 mM (≈ 17600 µg/mL) | 8.4 mM (≈ 2200 µg/mL) | CCN(CC)CCOc1ccc2ccc(=O)oc2c1 | inactive | –
30.7 mM (≈ 8880 µg/mL) | 46 mM (≈ 13300 µg/mL) | 46 mM (≈ 13300 µg/mL) | – | 61.4 mM (≈ 17800 µg/mL) | 46 mM (≈ 13300 µg/mL) | CC(C)N(CCOc1ccc2ccc(=O)oc2c1)C(C)C | inactive | –
24.6 mM (≈ 8450 µg/mL) | 49.2 mM (≈ 16900 µg/mL) | 12.3 mM (≈ 4220 µg/mL) | 24.6 mM (≈ 8450 µg/mL) | 24.6 mM (≈ 8450 µg/mL) | 24.6 mM (≈ 8450 µg/mL) | CC(=O)c1c(OCCN2CCCCC2C)ccc2c(C)cc(=O)oc12 (stereo not given) | – | growth inhibition (GI) [8]: Active; growth inhibition (GI) [9]: Active
26.1 mM (≈ 8600 µg/mL) | 13 mM (≈ 4280 µg/mL) | 6.5 mM (≈ 2140 µg/mL) | 39.1 mM (≈ 12900 µg/mL) | 39.1 mM (≈ 12900 µg/mL) | 39.1 mM (≈ 12900 µg/mL) | CC(=O)c1c(OCCN2CCCCC2)ccc2c(C)cc(=O)oc12 | – | –
– | – | – | – | – | – | CCN(CC)CCOc1cc2oc(=O)cc(C)c2cc1C(C)=O | – | MIC [1]: 63 mM (≈ 20000 µg/mL); MIC [3]: 31.5 mM (≈ 10000 µg/mL); MIC [6]: 31.5 mM (≈ 10000 µg/mL)
72.6 mM (≈ 20000 µg/mL) | 36.3 mM (≈ 9990 µg/mL) | 18.2 mM (≈ 5010 µg/mL) | 72.6 mM (≈ 20000 µg/mL) | 36.3 mM (≈ 9990 µg/mL) | 72.6 mM (≈ 20000 µg/mL) | O=c1ccc2ccc(OCCN3CCOCC3)cc2o1 | – | –
30.2 mM (≈ 10000 µg/mL) | 30.2 mM (≈ 10000 µg/mL) | 30.2 mM (≈ 10000 µg/mL) | 30.2 mM (≈ 10000 µg/mL) | 30.2 mM (≈ 10000 µg/mL) | 30.2 mM (≈ 10000 µg/mL) | CC(=O)c1cc2c(C)cc(=O)oc2cc1OCCN1CCOCC1 | – | growth inhibition (GI) [10]: Active; growth inhibition (GI) [11]: Active; growth inhibition (GI) [12]: Active
– | – | – | – | – | – | O=c1ccc2ccc(O)cc2o1 | inactive | Activity [13]: inactive; Activity [14]: inactive; Activity [15]: inactive; Activity [16]: inactive; Activity [17]: inactive; Activity [18]: inactive; Activity [19]: inactive
2 mM (≈ 551 µg/mL) | 8 mM (≈ 2200 µg/mL) | 2 mM (≈ 551 µg/mL) | 32.1 mM (≈ 8840 µg/mL) | 32.1 mM (≈ 8840 µg/mL) | 2 mM (≈ 551 µg/mL) | CCN(CC)CCOc1ccc2c(C)cc(=O)oc2c1 | – | –
– | – | – | – | – | – | CCN(CC)CCOc1ccc2c(C)cc(=O)oc2c1C(C)=O [listing 1 of 2 here] | inactive | Activity [14]: inactive; Activity [15]: inactive; Activity [17]: inactive; Activity [18]: inactive; Activity [19]: inactive
3.9 mM (≈ 1240 µg/mL) | – | 2 mM (≈ 635 µg/mL) | 3.9 mM (≈ 1240 µg/mL) | 3.9 mM (≈ 1240 µg/mL) | 3.9 mM (≈ 1240 µg/mL) | CCN(CC)CCOc1ccc2c(C)cc(=O)oc2c1C(C)=O [listing 2 of 2 here] | – | –
– | – | 25 mM (≈ 8640 µg/mL) | – | – | – | CC(=O)c1c(OCCN(C(C)C)C(C)C)ccc2c(C)cc(=O)oc12 | inactive | Activity [13]: inactive; Activity [14]: inactive; Activity [15]: inactive; Activity [17]: inactive; Activity [18]: inactive; Activity [19]: inactive
